Three molecules from patent US20110034441A1, “INDAZOLES AS WNT/B-CATENIN SIGNALING PATHWAY INHIBITORS AND THERAPEUTIC USES THEREOF” (EPITHERIX, LLC, priority 2009, published 2011) can be followed below.

This assay concerns Wnt. Kind of assay: Wnt reporter screening assay: SP5 promoter (TCF/LEF) firefly luciferase in SW480 cells. To be noted: Homo sapiens; SW480 colon cancer cells with SP5 promoter luciferase reporter; 24 hours after compound addition; normalized to DMSO; read-out: Wnt inhibition, IC50. It is filed as cell-based. An excerpt:
Another screening assay for Wnt activity is described as follows. Reporter cell lines can be generated by stably transducing cells of cancer cell lines (e.g., colon cancer) with a lentiviral construct that include a wnt-responsive promoter driving expression of the firefly luciferase gene.
Lentiviral constructs can be made in which the SP5 promoter, a promoter having eight TCF/LEF binding sites derived from the SP5 promoter, is linked upstream of the firefly luciferase gene. The lentiviral constructs can also include a hygromycin resistance gene as a selectable marker. The SP5 promoter construct can be used to transduce SW480 cells, a colon cancer cell line having a mutated APC gene that generates a truncated APC protein, leading to de-regulated accumulation of β-catenin.
Cultured SW480 cells bearing a reporter construct can be distributed at approximately 10,000 cells per well into 384 well multiwell plates. Compounds from a small molecule compound library can then be added to the wells in half-log dilutions using a three micromolar top concentration. A series of control wells for each cell type receive only buffer and compound solvent. Twenty-four hours after the addition of compound, reporter activity for luciferases can be assayed, for example, by addition of the BrightGlo luminescence reagent (Promega) and the Victor3 plate reader (Perkin Elmer). Readings can be normalized to DMSO only treated cells, and normalized activities can then be used in the IC50 calculations.
In general terms: A reporter such as luciferase makes a cellular process visible.

As usually defined, the IC50 is the concentration needed to halve the response being measured. On to `CN1CCC(CNC(=O)c2ccc3[nH]nc(-c4nc5ccccc5[nH]4)c3c2)C1` (stereo not drawn) [Compound 3], for which the IC50 stood at 580 nM.
The result for `O=C(c1ccc2[nH]nc(-c3nc4ccccc4[nH]3)c2c1)N1CCCC1` [Compound 20, (3-(1H-benzo[d]imidazol-2-yl)-1H-indazol-5-yl)(pyrrolidin-1-yl)methanone] reads 606 nM; that for `CCNCc1cncc(-c2ccc3[nH]nc(-c4nc5c(-c6ccccc6)cccc5[nH]4)c3c2)c1C` [Compound 39, N-((4-methyl-5-(3-(4-phenyl-1H-benzo[d]imidazol-2-yl)-1H-indazol-5-yl)pyridin-3-yl)methyl)ethanamine], 690 to 730 nM.
